The values below are quoted from earlier work in patent US10052384B2, “Liquid antiseptic compositions containing iodine and a sugar and/or sugar alcohol” (3M INNOVATIVE PROPERTIES COMPANY, priority 2007, dated 2018).

The conditions of the series: 25° C.

Structures are written as SMILES.

Turning to `II` [elemental iodine], the Solubility in water is 0.03 wt-%.
